Data from PubChem BioAssay (NCI).
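Five concentrations, 48 hours, 96-well plates. TGI marks complete inhibition of growth.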

Test system: HOP-62 NSCLC
Experiment: NCI tumour cell line growth inhibition, 48 h

Row | Structure (SMILES) | TGI [µM]
1 | CC(C)(C)OC/C=C(/CO)[C@@H]1C=C[C@H](O)C1 | > 100
2 | CN(CCN(C)C(=O)CCn1cc(F)c(=O)[nH]c1=O)C(=O)CCn1cc(F)c(=O)[nH]c1=O | > 100
3 | CCOC1c2cc(C(C)C)c(O)c(O)c2[C@@]23CCCC(C)(C)C2C1OC3=O (stereo not given in full) | > 100
4 | C=CN1C(=O)[C@H](Oc2ccccc2)[C@@H]1c1ccccc1 | 92.2
5 | CS(=O)(=O)c1ccc(-c2cc(-c3ccc(S(C)(=O)=O)cc3)[n+](-c3cc(-c4ccccc4)c([O-])c(-c4ccccc4)c3)c(-c3ccc(S(C)(=O)=O)cc3)c2)cc1 | > 100
6 | Nc1ccn([C@H]2CO[C@@H](CO)[C@@H]2O)c(=O)n1 | > 100
7 | COc1ccc(C(C#N)NNC(=O)Cc2ccccc2)cc1OC (stereo not given) | > 100
8 | O=C(CC(C(=O)c1ccsc1)c1ccccc1)c1ccccc1 (stereo not given) | > 100
9 | CC(C)=CC1CC(=[N+]=[N-])C(=O)C1(C)C (stereo not given) | > 100
10 | COc1cccc(C2CC23C(=O)NC(=O)NC3=O)c1 (stereo not given) | > 100
11 | O=C(CSc1c2ccccc2nc2ccccc12)Nc1ccccc1-c1ccccc1NC(=O)CSc1c2ccccc2nc2ccccc12 | > 63.3
12 | CC1(C)OC[C@@H]([C@H](O)C2C=CC(=O)S2)O1 (stereo not given in full) | > 100
13 | CCOC(=O)Cc1ccc(Nc2nc3ccccc3nc2C(=O)OCC)cc1 | > 100
14 | O=S(=O)(c1ccccc1)N1N=C2c3ccccc3CCC[C@H]2C1c1ccccc1 (stereo not given in full) | > 100
15 | CCOC(=O)/C(=C/c1ccc(N(C)C)cc1)N(CC)CC | > 100
16 | CC1CN=C(N(C(=O)Nc2ccccc2)c2ccc(Cl)c(Cl)c2)S1 (stereo not given) | > 100
17 | CC(=O)O[C@H]1CC[C@@]2(C)C(=CC[C@H]3[C@@H]4C/C(=C\c5ccc(N(C)C)cc5)[C@H](OC(C)=O)[C@@]4(C)CC[C@@H]32)C1 | 51.6
18 | CC(C)(C)[Si](C)(C)Oc1ccc(C2CNC(=O)C23CCC(=O)N3Cc2ccccc2)cc1 (stereo not given) | 53.3

Test system: HOP-92 NSCLC
Experiment: NCI tumour cell line growth inhibition, 48 h

Row | Structure (SMILES) | TGI [µM]
19 | COC(=O)[C@@]1(C)/C(=N/NS(=O)(=O)c2ccc(C)cc2)CCC[C@@H]1C | > 100
20 | COc1ccc(OC)c(/C=C(/C#N)c2ccccc2)c1 | 70.2
21 | COC(=O)C(C(=O)Cc1ccccc1[N+](=O)[O-])C(=O)OC | > 100
22 | CCCCC/C=C1\CCC(CN(C)C)C1=O (stereo not given) | 27.1
23 | O=C(Cn1c(-c2ccccc2)cc2ccccc21)N1CCCC1 | > 100
24 | C=CCN1CCC(O)(c2cc(C(=O)OCC)[nH]c2-c2cc(C)no2)C1 (stereo not given) | > 100
25 | CC1CN=C(N(C(=O)Nc2ccc(Cl)c(Cl)c2)c2ccccc2)S1 (stereo not given) | > 100
26 | CNCCCn1c2ccccc2c2c3c(c(-c4ccsc4)cc21)C(=O)NC3=O | 2.22
27 | C=C(C)C1CCC2(C)CC1c1c(c(C)cc3c1[nH]c1ccccc13)O2 (stereo not given) | > 25
28 | Nc1ccn([C@H]2CO[C@@H](CO)[C@@H]2O)c(=O)n1 | > 100
29 | COc1ccc(C(C#N)NNC(=O)Cc2ccccc2)cc1OC (stereo not given) | > 100
30 | O=C(CC(C(=O)c1ccsc1)c1ccccc1)c1ccccc1 (stereo not given) | > 100
31 | CC(C)=CC1CC(=[N+]=[N-])C(=O)C1(C)C (stereo not given) | > 100
32 | COc1cccc(C2CC23C(=O)NC(=O)NC3=O)c1 (stereo not given) | > 100
33 | O=C(CSc1c2ccccc2nc2ccccc12)Nc1ccccc1-c1ccccc1NC(=O)CSc1c2ccccc2nc2ccccc12 | 96.1
34 | CC1(C)OC[C@@H]([C@H](O)C2C=CC(=O)S2)O1 (stereo not given in full) | 58.5
35 | CCOC(=O)Cc1ccc(Nc2nc3ccccc3nc2C(=O)OCC)cc1 | > 100
36 | O=S(=O)(c1ccccc1)N1N=C2c3ccccc3CCC[C@H]2C1c1ccccc1 (stereo not given in full) | > 100
37 | CCOC(=O)/C(=C/c1ccc(N(C)C)cc1)N(CC)CC | > 100
38 | CC1CN=C(N(C(=O)Nc2ccccc2)c2ccc(Cl)c(Cl)c2)S1 (stereo not given) | 52.3
39 | CC(C)(C)[Si](C)(C)Oc1ccc(C2CNC(=O)C23CCC(=O)N3Cc2ccccc2)cc1 (stereo not given) | 34.6

Test system: HS 578T breast
Experiment: NCI tumour cell line growth inhibition, 48 h

Row | Structure (SMILES) | TGI [µM]
40 | O=C(Cn1c(-c2ccccc2)cc2ccccc21)N1CCCC1 | > 100
41 | Cc1ccc(Cl)c2c(=O)c3ccc(N)cc3sc12 | 33.6
42 | CC1CN=C(N(C(=O)Nc2ccc(Cl)c(Cl)c2)c2ccccc2)S1 (stereo not given) | > 100
43 | O=C(CC(C(=O)c1ccsc1)c1ccccc1)c1ccccc1 (stereo not given) | > 100
44 | CCOC(=O)Cc1ccc(Nc2nc3ccccc3nc2C(=O)OCC)cc1 | 88.9
45 | CC1CN=C(N(C(=O)Nc2ccccc2)c2ccc(Cl)c(Cl)c2)S1 (stereo not given) | > 100
46 | CC(=O)O[C@H]1CC[C@@]2(C)C(=CC[C@H]3[C@@H]4C/C(=C\c5ccc(N(C)C)cc5)[C@H](OC(C)=O)[C@@]4(C)CC[C@@H]32)C1 | 9.36
47 | CC(C)(C)[Si](C)(C)Oc1ccc(C2CNC(=O)C23CCC(=O)N3Cc2ccccc2)cc1 (stereo not given) | 21.5

Test system: LOX IMVI melanoma
Experiment: NCI tumour cell line growth inhibition, 48 h

Row | Structure (SMILES) | TGI [µM]
48 | COC(=O)[C@@]1(C)/C(=N/NS(=O)(=O)c2ccc(C)cc2)CCC[C@@H]1C | 27.5
49 | COc1ccc(OC)c(/C=C(/C#N)c2ccccc2)c1 | > 100
50 | COC(=O)C(C(=O)Cc1ccccc1[N+](=O)[O-])C(=O)OC | > 100
51 | CCCCC/C=C1\CCC(CN(C)C)C1=O (stereo not given) | 20.6
52 | O=C(Cn1c(-c2ccccc2)cc2ccccc21)N1CCCC1 | > 100
53 | C=CCN1CCC(O)(c2cc(C(=O)OCC)[nH]c2-c2cc(C)no2)C1 (stereo not given) | > 100
54 | CC1CN=C(N(C(=O)Nc2ccc(Cl)c(Cl)c2)c2ccccc2)S1 (stereo not given) | > 100
55 | C=C(C)C1CCC2(C)CC1c1c(c(C)cc3c1[nH]c1ccccc13)O2 (stereo not given) | > 25
56 | CN(CCN(C)C(=O)CCn1cc(F)c(=O)[nH]c1=O)C(=O)CCn1cc(F)c(=O)[nH]c1=O | > 100
57 | CCOC1c2cc(C(C)C)c(O)c(O)c2[C@@]23CCCC(C)(C)C2C1OC3=O (stereo not given in full) | > 100
58 | CS(=O)(=O)c1ccc(-c2cc(-c3ccc(S(C)(=O)=O)cc3)[n+](-c3cc(-c4ccccc4)c([O-])c(-c4ccccc4)c3)c(-c3ccc(S(C)(=O)=O)cc3)c2)cc1 | > 100
59 | Nc1ccn([C@H]2CO[C@@H](CO)[C@@H]2O)c(=O)n1 | > 100
60 | COc1ccc(C(C#N)NNC(=O)Cc2ccccc2)cc1OC (stereo not given) | > 100
61 | O=C(CC(C(=O)c1ccsc1)c1ccccc1)c1ccccc1 (stereo not given) | > 100
62 | CC(C)=CC1CC(=[N+]=[N-])C(=O)C1(C)C (stereo not given) | > 100
63 | COc1cccc(C2CC23C(=O)NC(=O)NC3=O)c1 (stereo not given) | > 100
64 | O=C(CSc1c2ccccc2nc2ccccc12)Nc1ccccc1-c1ccccc1NC(=O)CSc1c2ccccc2nc2ccccc12 | 39.1
65 | CC1(C)OC[C@@H]([C@H](O)C2C=CC(=O)S2)O1 (stereo not given in full) | 31.7
66 | CCOC(=O)Cc1ccc(Nc2nc3ccccc3nc2C(=O)OCC)cc1 | > 100
67 | O=S(=O)(c1ccccc1)N1N=C2c3ccccc3CCC[C@H]2C1c1ccccc1 (stereo not given in full) | > 100
68 | CCOC(=O)/C(=C/c1ccc(N(C)C)cc1)N(CC)CC | 78.5
69 | CC1CN=C(N(C(=O)Nc2ccccc2)c2ccc(Cl)c(Cl)c2)S1 (stereo not given) | 93.3
70 | CC(=O)O[C@H]1CC[C@@]2(C)C(=CC[C@H]3[C@@H]4C/C(=C\c5ccc(N(C)C)cc5)[C@H](OC(C)=O)[C@@]4(C)CC[C@@H]32)C1 | 20.8
71 | CC(C)(C)[Si](C)(C)Oc1ccc(C2CNC(=O)C23CCC(=O)N3Cc2ccccc2)cc1 (stereo not given) | 41.2

Test system: MALME-3M melanoma
Experiment: NCI tumour cell line growth inhibition, 48 h

Row | Structure (SMILES) | TGI [µM]
72 | COC(=O)[C@@]1(C)/C(=N/NS(=O)(=O)c2ccc(C)cc2)CCC[C@@H]1C | > 100
73 | COc1ccc(OC)c(/C=C(/C#N)c2ccccc2)c1 | > 100
74 | COC(=O)C(C(=O)Cc1ccccc1[N+](=O)[O-])C(=O)OC | > 100
75 | CCCCC/C=C1\CCC(CN(C)C)C1=O (stereo not given) | 28.7
76 | O=C(Cn1c(-c2ccccc2)cc2ccccc21)N1CCCC1 | > 100
77 | C=CCN1CCC(O)(c2cc(C(=O)OCC)[nH]c2-c2cc(C)no2)C1 (stereo not given) | > 100
78 | CC1CN=C(N(C(=O)Nc2ccc(Cl)c(Cl)c2)c2ccccc2)S1 (stereo not given) | > 100
79 | C=C(C)C1CCC2(C)CC1c1c(c(C)cc3c1[nH]c1ccccc13)O2 (stereo not given) | > 25
80 | CC(C)(C)OC/C=C(/CO)[C@@H]1C=C[C@H](O)C1 | > 100
81 | CN(CCN(C)C(=O)CCn1cc(F)c(=O)[nH]c1=O)C(=O)CCn1cc(F)c(=O)[nH]c1=O | > 100
82 | CCOC1c2cc(C(C)C)c(O)c(O)c2[C@@]23CCCC(C)(C)C2C1OC3=O (stereo not given in full) | > 100
83 | C=CN1C(=O)[C@H](Oc2ccccc2)[C@@H]1c1ccccc1 | > 100
84 | CS(=O)(=O)c1ccc(-c2cc(-c3ccc(S(C)(=O)=O)cc3)[n+](-c3cc(-c4ccccc4)c([O-])c(-c4ccccc4)c3)c(-c3ccc(S(C)(=O)=O)cc3)c2)cc1 | > 100
85 | COc1ccc(C(C#N)NNC(=O)Cc2ccccc2)cc1OC (stereo not given) | > 100
86 | CC(C)=CC1CC(=[N+]=[N-])C(=O)C1(C)C (stereo not given) | > 100
87 | COc1cccc(C2CC23C(=O)NC(=O)NC3=O)c1 (stereo not given) | > 100
88 | O=C(CSc1c2ccccc2nc2ccccc12)Nc1ccccc1-c1ccccc1NC(=O)CSc1c2ccccc2nc2ccccc12 | > 91.3
89 | CC1(C)OC[C@@H]([C@H](O)C2C=CC(=O)S2)O1 (stereo not given in full) | 43.1
90 | CCOC(=O)Cc1ccc(Nc2nc3ccccc3nc2C(=O)OCC)cc1 | > 100
91 | O=S(=O)(c1ccccc1)N1N=C2c3ccccc3CCC[C@H]2C1c1ccccc1 (stereo not given in full) | > 100
92 | CCOC(=O)/C(=C/c1ccc(N(C)C)cc1)N(CC)CC | > 100
93 | CC1CN=C(N(C(=O)Nc2ccccc2)c2ccc(Cl)c(Cl)c2)S1 (stereo not given) | > 100
94 | CC(=O)O[C@H]1CC[C@@]2(C)C(=CC[C@H]3[C@@H]4C/C(=C\c5ccc(N(C)C)cc5)[C@H](OC(C)=O)[C@@]4(C)CC[C@@H]32)C1 | 29.7
95 | CC(C)(C)[Si](C)(C)Oc1ccc(C2CNC(=O)C23CCC(=O)N3Cc2ccccc2)cc1 (stereo not given) | 48.4

Test system: MDA-MB-231 breast
Experiment: NCI tumour cell line growth inhibition, 48 h

Row | Structure (SMILES) | TGI [µM]
96 | O=C(Cn1c(-c2ccccc2)cc2ccccc21)N1CCCC1 | > 100
97 | Cc1ccc(Cl)c2c(=O)c3ccc(N)cc3sc12 | 74.8
98 | C=CCN1CCC(O)(c2cc(C(=O)OCC)[nH]c2-c2cc(C)no2)C1 (stereo not given) | > 100
99 | CC1CN=C(N(C(=O)Nc2ccc(Cl)c(Cl)c2)c2ccccc2)S1 (stereo not given) | > 100
100 | CNCCCn1c2ccccc2c2c3c(c(-c4ccsc4)cc21)C(=O)NC3=O | 3.06
101 | CC(C)(C)OC/C=C(/CO)[C@@H]1C=C[C@H](O)C1 | > 100
102 | Nc1ccn([C@H]2CO[C@@H](CO)[C@@H]2O)c(=O)n1 | > 100
103 | CC1(C)OC[C@@H]([C@H](O)C2C=CC(=O)S2)O1 (stereo not given in full) | 70
104 | CC1CN=C(N(C(=O)Nc2ccccc2)c2ccc(Cl)c(Cl)c2)S1 (stereo not given) | > 100
105 | CC(=O)O[C@H]1CC[C@@]2(C)C(=CC[C@H]3[C@@H]4C/C(=C\c5ccc(N(C)C)cc5)[C@H](OC(C)=O)[C@@]4(C)CC[C@@H]32)C1 | 29.4

Test system: MDA-MB-435
Experiment: NCI tumour cell line growth inhibition, 48 h

Row | Structure (SMILES) | TGI [µM]
106 | C=CCN1CCC(O)(c2cc(C(=O)OCC)[nH]c2-c2cc(C)no2)C1 (stereo not given) | > 100
107 | CNCCCn1c2ccccc2c2c3c(c(-c4ccsc4)cc21)C(=O)NC3=O | 2.35
108 | CC(C)(C)OC/C=C(/CO)[C@@H]1C=C[C@H](O)C1 | > 100
109 | Nc1ccn([C@H]2CO[C@@H](CO)[C@@H]2O)c(=O)n1 | > 100
110 | O=C(CC(C(=O)c1ccsc1)c1ccccc1)c1ccccc1 (stereo not given) | > 100
